We go through 25 molecules from patent US9403808B2, “Pyrazine derivatives” (Hoffmann-La Roche Inc., priority 2011, dated 2016).

For one assay, the target named is human CB1 receptors (Homo sapiens (Human), UniProt P21554). In words: functional cAMP assay, CB1. To be noted: functional cAMP assay, CHO cells expressing human CB1; read-out: human CB1 EC50. In kind it is cell-based. The procedure, abridged:
(§1)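 CHO cells expressing human CB1 or CB2 were preincubated 30 min at 30 °C in Krebs Ringer bicarbonate buffer with 1 mM IBMX, then exposed to compound for 30 min at 30 °C. cAMP was measured by TR-FRET (cAMP-Nano-TRF) against a 10 μM–0.13 nM cAMP standard curve, and EC50 values were derived.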
(In general: Cyclic AMP is a second messenger, typically raised through Gs and lowered through Gi signalling.)

A further assay has as its target human CB2 receptors (Homo sapiens (Human), UniProt P34972). The assay can be described thus: functional cAMP assay, CB2. In kind it is cell-based. To be noted: functional cAMP assay, CHO cells expressing human CB2; read-out: human CB2 EC50. The method, boiled down: as §1

pEC50: −log10 of the molar value.

human CB2 receptors, sequence (P34972 whole entry): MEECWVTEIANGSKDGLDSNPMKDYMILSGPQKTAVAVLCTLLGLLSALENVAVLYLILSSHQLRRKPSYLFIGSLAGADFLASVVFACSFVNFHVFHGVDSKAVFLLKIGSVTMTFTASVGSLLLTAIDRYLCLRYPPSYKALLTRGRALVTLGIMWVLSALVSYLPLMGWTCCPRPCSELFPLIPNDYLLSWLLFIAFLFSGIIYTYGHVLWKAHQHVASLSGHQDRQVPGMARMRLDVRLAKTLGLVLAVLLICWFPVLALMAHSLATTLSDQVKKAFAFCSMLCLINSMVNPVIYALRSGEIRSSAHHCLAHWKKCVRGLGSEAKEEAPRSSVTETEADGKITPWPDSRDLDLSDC
human CB1 receptors, sequence (P21554 whole entry): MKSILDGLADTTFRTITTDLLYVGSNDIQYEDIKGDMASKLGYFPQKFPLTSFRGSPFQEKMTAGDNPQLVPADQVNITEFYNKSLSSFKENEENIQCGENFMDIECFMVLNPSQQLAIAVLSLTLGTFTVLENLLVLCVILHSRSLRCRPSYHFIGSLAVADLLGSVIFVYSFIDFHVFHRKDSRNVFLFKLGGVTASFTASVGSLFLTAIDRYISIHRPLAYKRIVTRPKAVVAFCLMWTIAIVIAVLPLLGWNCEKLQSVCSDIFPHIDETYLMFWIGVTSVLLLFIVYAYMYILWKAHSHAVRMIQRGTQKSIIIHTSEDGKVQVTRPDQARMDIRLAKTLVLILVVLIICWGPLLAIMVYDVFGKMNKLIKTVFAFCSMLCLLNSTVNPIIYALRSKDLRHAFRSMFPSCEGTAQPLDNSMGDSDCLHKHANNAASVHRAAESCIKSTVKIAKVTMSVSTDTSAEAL

Turning to `Cc1nc(C(C)(NC(=O)c2cnc(N3CC(F)(F)C3)c(OCC3CC3)n2)C2CC2)no1` (centres unmarked) [Example 61, 6-Cyclopropylmethoxy-5-(3,3-difluoro-azetidin-1-yl)-pyrazine-2-carboxylic acid [1-cyclopropyl-1-(5-methyl-[1,2,4]oxadiazol-3-yl)-ethyl]-amide], the pEC50 on human CB1 receptors is < 5.00; at human CB2 receptors, 7.75.

Take `Cc1nc(C(C)(NC(=O)c2cnc(C3CC3)c(OCC3CC3)n2)C2CC2)no1` (centres unmarked) [Example 62, 5-Cyclopropyl-6-cyclopropylmethoxy-pyrazine-2-carboxylic acid [1-cyclopropyl-1-(5-methyl-[1,2,4]oxadiazol-3-yl)-ethyl]-amide]: the pEC50 at human CB1 receptors was 5.78; at human CB2 receptors, 7.64.

Consider `COC(=O)C(C)(NC(=O)c1cnc(N2CC(F)(F)C2)c(OCC2CC2)n1)C1CC1` (centres unmarked) [Example 80, 2-Cyclopropyl-2-{[6-cyclopropylmethoxy-5-(3,3-difluoro-azetidin-1-yl)-pyrazine-2-carbonyl]-amino}-propionic acid methyl ester], for which the pEC50 at human CB1 receptors is < 5.00; at human CB2 receptors it was 9.15.

For the molecule `NC(=O)CC1(NC(=O)c2cnc(C3CC3)c(OCC3CC3)n2)COC1` [Example 84, 5-Cyclopropyl-6-cyclopropylmethoxy-pyrazine-2-carboxylic acid (3-carbamoylmethyl-oxetan-3-yl)-amide], the values for the pEC50 at human CB1 receptors and at human CB2 receptors were < 5.00 and 7.84, respectively.

With `NC(=O)CC1(NC(=O)c2cnc(N3CC(F)(F)C3)c(OCC3CC3)n2)COC1` [Example 85, 6-Cyclopropylmethoxy-5-(3,3-difluoro-azetidin-1-yl)-pyrazine-2-carboxylic acid (3-carbamoylmethyl-oxetan-3-yl)-amide], the pEC50 at human CB1 receptors is < 5.00; at human CB2 receptors, 8.24.

Regarding `Cc1nc([C@@](C)(NC(=O)c2cnc(N3CC(F)(F)C3)c(OCC3CC3)n2)C2CC2)no1` [Example 86, (+)-6-Cyclopropylmethoxy-5-(3,3-difluoro-azetidin-1-yl)-pyrazine-2-carboxylic acid [1-cyclopropyl-1-(5-methyl-[1,2,4]oxadiazol-3-yl)-ethyl]-amide], the pEC50 on human CB1 receptors is < 5.00; on human CB2 receptors, 7.63.

Take `Cc1nc([C@](C)(NC(=O)c2cnc(N3CC(F)(F)C3)c(OCC3CC3)n2)C2CC2)no1` [Example 87, (−)-6-Cyclopropylmethoxy-5-(3,3-difluoro-azetidin-1-yl)-pyrazine-2-carboxylic acid [1-cyclopropyl-1-(5-methyl-[1,2,4]oxadiazol-3-yl)-ethyl]-amide]: the pEC50 on human CB1 receptors is < 5.00; at human CB2 receptors, 7.88.

For the molecule `CC(C)C(NC(=O)c1cnc(N2CC(F)(F)C2)c(OCC2CC2)n1)C(N)=O` (centres unmarked) [Example 88, 6-Cyclopropylmethoxy-5-(3,3-difluoro-azetidin-1-yl)-pyrazine-2-carboxylic acid (1-carbamoyl-2-methyl-propyl)-amide], the pEC50 on human CB1 receptors is < 5.00; on human CB2 receptors it was 7.10.

In the case of `NC(=O)C1(NC(=O)c2cnc(N3CC(F)(F)C3)c(OCC3CC3)n2)CCCCC1` [Example 89, 6-Cyclopropylmethoxy-5-(3,3-difluoro-azetidin-1-yl)-pyrazine-2-carboxylic acid (1-carbamoyl-cyclohexyl)-amide], the pEC50 at human CB1 receptors was < 5.00; on human CB2 receptors it was 7.15.

For `CC(C)C(NC(=O)c1cnc(N2CC(F)(F)C2)c(OCC2CC2)n1)C(=O)N(C)C` (centres unmarked) [Example 91, 6-Cyclopropylmethoxy-5-(3,3-difluoro-azetidin-1-yl)-pyrazine-2-carboxylic acid (1-dimethylcarbamoyl-2-methyl-propyl)-amide], the values for the pEC50 at human CB1 receptors and on human CB2 receptors were < 5.00 and 7.69, respectively.

On to `CC(C)C(NC(=O)c1cnc(C2CC2)c(OCC2CC2)n1)C(=O)N(C)C` (centres unmarked) [Example 92, 5-Cyclopropyl-6-cyclopropylmethoxy-pyrazine-2-carboxylic acid (1-dimethylcarbamoyl-2-methyl-propyl)-amide], for which the results for the pEC50 at human CB1 receptors and on human CB2 receptors were < 5.00 and 8.07, respectively.

With `O=C(Nc1ccc(Cl)s1)c1cnc(N2CC(F)(F)C2)c(OCC2CC2)n1` [Example 93, 6-Cyclopropylmethoxy-5-(3,3-difluoro-azetidin-1-yl)-pyrazine-2-carboxylic acid (5-chloro-thiophen-2-yl)-amide], the results for the pEC50 on human CB1 receptors and on human CB2 receptors were < 5.00 and 7.13, respectively.

Regarding `O=C(NC1(CO)CCCCC1)c1cnc(C2CC2)c(OCC2CC2)n1` [Example 94, 5-Cyclopropyl-6-cyclopropylmethoxy-pyrazine-2-carboxylic acid (1-hydroxymethyl-cyclohexyl)-amide], the pEC50 at human CB1 receptors is < 5.00; at human CB2 receptors, 7.92.

With `COCCC(C)(C)NC(=O)c1cnc(C2CC2)c(OCC2CC2)n1` [Example 95, 5-Cyclopropyl-6-cyclopropylmethoxy-pyrazine-2-carboxylic acid (3-methoxy-1,1-dimethyl-propyl)-amide], the pEC50 at human CB1 receptors was < 5.00; on human CB2 receptors, 7.65.

Take `CN(C)C(=O)C(CC1CCC1)NC(=O)c1cnc(N2CC(F)(F)C2)c(OCC2CC2)n1` (centres unmarked) [Example 97, 6-Cyclopropylmethoxy-5-(3,3-difluoro-azetidin-1-yl)-pyrazine-2-carboxylic acid (2-cyclobutyl-1-dimethylcarbamoyl-ethyl)-amide]: the pEC50 is < 5.00 on human CB1 receptors and 7.69 at human CB2 receptors.

Take `CNC(=O)C(CC1CCC1)NC(=O)c1cnc(C2CC2)c(OCC2CC2)n1` (centres unmarked) [Example 98, 5-Cyclopropyl-6-cyclopropylmethoxy-pyrazine-2-carboxylic acid (2-cyclobutyl-1-methylcarbamoyl-ethyl)-amide]: the pEC50 on human CB1 receptors was < 5.00; at human CB2 receptors, 7.23.

Regarding `COCCC(C)(C)NC(=O)c1cnc(N2CC(F)(F)C2)c(OCC2CC2)n1` [Example 99, 6-Cyclopropylmethoxy-5-(3,3-difluoro-azetidin-1-yl)-pyrazine-2-carboxylic acid (3-methoxy-1,1-dimethyl-propyl)-amide], the pEC50 was < 5.00 at human CB1 receptors and 7.99 on human CB2 receptors.

With `O=C(NC(CO)CC1CCC1)c1cnc(N2CC(F)(F)C2)c(OCC2CC2)n1` (centres unmarked) [Example 100, 6-Cyclopropylmethoxy-5-(3,3-difluoro-azetidin-1-yl)-pyrazine-2-carboxylic acid (1-cyclobutylmethyl-2-hydroxy-ethyl)-amide], the pEC50 at human CB1 receptors was < 5.00; on human CB2 receptors it was 8.14.

Turning to `NC(=O)C(CC1CCC1)NC(=O)c1cnc(N2CC(F)(F)C2)c(OCC2CC2)n1` (centres unmarked) [Example 101, 6-Cyclopropylmethoxy-5-(3,3-difluoro-azetidin-1-yl)-pyrazine-2-carboxylic acid (1-carbamoyl-2-cyclobutyl-ethyl)-amide], the results for the pEC50 at human CB1 receptors and at human CB2 receptors were < 5.00 and 8.25, respectively.

Take `CC(C)(CCc1ccccc1)NC(=O)c1cnc(N2CC(F)(F)C2)c(OCC2CC2)n1` [Example 102, 6-Cyclopropylmethoxy-5-(3,3-difluoro-azetidin-1-yl)-pyrazine-2-carboxylic acid (1,1-dimethyl-3-phenyl-propyl)-amide]: the pEC50 at human CB1 receptors is < 5.00; on human CB2 receptors it was 8.60.

On to `CN(C)C(=O)C(CC1CCC1)NC(=O)c1cnc(C2CC2)c(OCC2CC2)n1` (centres unmarked) [Example 103, 5-Cyclopropyl-6-cyclopropylmethoxy-pyrazine-2-carboxylic acid (2-cyclobutyl-1-dimethylcarbamoyl-ethyl)-amide], for which the pEC50 on human CB1 receptors is < 5.00; on human CB2 receptors, 7.72.

For the molecule `NC(=O)C(CC1CCC1)NC(=O)c1cnc(C2CC2)c(OCC2CC2)n1` (centres unmarked) [Example 104, 5-Cyclopropyl-6-cyclopropylmethoxy-pyrazine-2-carboxylic acid (1-carbamoyl-2-cyclobutyl-ethyl)-amide], the figures for the pEC50 at human CB1 receptors and on human CB2 receptors were < 5.00 and 7.37, respectively.

Consider `O=C(NC(CO)CC1CCC1)c1cnc(C2CC2)c(OCC2CC2)n1` (centres unmarked) [Example 105, 5-Cyclopropyl-6-cyclopropylmethoxy-pyrazine-2-carboxylic acid (1-cyclobutylmethyl-2-hydroxy-ethyl)-amide], for which the pEC50 on human CB1 receptors is < 5.00; on human CB2 receptors, 7.43.

`CC(C)(CC(N)=O)NC(=O)c1cnc(C2CC2)c(OCC2CC2)n1` [Example 106]: the values for the pEC50 at human CB1 receptors and on human CB2 receptors were < 5.00 and 7.36, respectively.

Take `CC(C)(CC(N)=O)NC(=O)c1cnc(N2CC(F)(F)C2)c(OCC2CC2)n1` [Example 107, 6-Cyclopropylmethoxy-5-(3,3-difluoro-azetidin-1-yl)-pyrazine-2-carboxylic acid (2-carbamoyl-1,1-dimethyl-ethyl)-amide]: the pEC50 at human CB1 receptors was 6.06; on human CB2 receptors it was 7.93.

One may read the pEC50 as the negative decadic logarithm of the EC50, by convention in mol/L.
